Source: patent US11351178B2, “Selective HDAC6 inhibitors” (ITALFARMACO S.P.A., priority 2017, dated 2022)
Read-outs that look alike come from different tables or passages of the source.

Tests used:
[1] = Pharmacokinetics after single intravenous and oral administration to the mouse
Experimental: Plasma levels and main pharmacokinetic parameters of test compounds were evaluated after single intravenous and oral administration to the mouse.
The formulations were prepared in a mixture of DMSO/PEG400/H2O. Blood was collected at the following sampling times: 5, 10, 15, 30 minutes, 1, 2, 4 and 6 hours after administration. Plasma samples (100 μL) were deproteinized by addition of 1% formic acid in ACN, then vortex mixed and centrifuged. For each sample, an aliquot of the supernatant was collected and diluted with water, filtered with 0.45 μm regenerated cellulose filter and analysed by LC-MS/MS. Plasma levels of the test compounds were calculated on a calibration curve prepared in the range 0.5-200 ng/mL.
Pharmacokinetic parameters were calculated on the mean plasma concentration curve using the software Kinetica™ v.

human PBMCs = assay: Mixed Lymphocytes Reaction (MLR) with human PBMCs (IFN-γ, TNF-α, IL-6); type: cell-based; conditions: PBMC, 144 h, two-way MLR, 6 days, negative = induction; for inhibition at […]: 0.25 μM
Experimental: In order to study HDAC6 inhibitors ability to inhibit the activation of allogenic T CD4+ cells, a Mixed Lymphocytes Reaction (MLR or mixed lymphocyte culture, CLM) assay was performed. This is a reaction involving blast transformation of in vitro cultured lymphocytes in the presence of allogeneic lymphocytes. There is the so-called “two-way” reaction wherein the two lymphocyte populations stimulate each other to proliferate, and the so-called “one way” reaction, wherein the proliferation of one of the two populations is inhibited by mitomycin C or irradiation, these cells provide proliferation stimulus (stimulator) to the so-called “responder” cells.
Human peripheral blood mononuclear cells (PBMCs) used in MLR were obtained by Ficoll gradient separation from Buffy Coat of healthy donors.
We used a two-way MLR. The cells from the two donors were plated at 1:1 ratio (allogenic stimulation) to the final concentration of 2×10^5 per well in U-bottom 96 well plates in RPMI 1640 medium with 10% FBS and antibiotics. As a control we individually plated the cells from each donor (singenic stimulus). The experiment for each inhibitor was set in deduplicate for allogeneic stimuli and in quintuplicate for singenic stimuli. The cells were cultured for 6 days in an incubator at 37° C.
After 6 days the effect of the test compounds was evaluated by measuring the production of pro-inflammatory cytokines recognized to be characteristics of this assay.
For this purpose, the culture supernatant was harvested and used for IFN-γ, TNF-α and IL-6 inflammatory cytokine assay.
The JAK inhibitor ruxolitinib was used as the active reference compound in the test.
Values in the table indicate the inhibition percentages. Negative values indicate an induction.

[2] = system: H3 histone acetylation in 697 cell line; assay: In vitro H3 histone acetylation in 697 cell line; type: cell-based; conditions: 16 h, read-out: Acetylation of H3 histone (fold increase of acetylated H3/total H3 towards control); for fold induction at 0.111 µM: conc 111 nM; for fold induction at 0.333 µM: conc 333 nM; for fold induction at 1 µM: conc 1000 nM
Experimental: (§1) The in vitro α-tubulin and H3 histone acetylation determination was evaluated on B 697 […] cell line.
(§2) The test molecules were diluted from 20 mM stock solution in DMSO with RPMI 10% FCS+0.01% DMSO medium at 20× concentration compared to the final concentration, added to the cells (15×10^6 cells in a total volume of 30 ml in RPMI medium 10% FCS+0.01% DMSO) to obtain the final concentrations of 1000, 333, 111 and 37 nM and incubated at 37° C., 5% CO2 for 16 hours.
The remaining cells (10×10^6) were treated by acid extraction of histones (Kazuhiro et al., PNAS (2002), 99 (13) 8921-8926). Cells were centrifuged 5 min at 1100 rpm at 4° C. and washed once in 0.9% NaCl. The resulting pellet was lysed with […] (10 mM Tris.HCl, pH 6.5/50 mM sodium bisulphite, 1% Triton X-100/10 mM MgCl2/8.6% saccharose containing the protease inhibitor mixture (Roche)) for 20 min at 4° C. The resulting nucleus pellet was repeatedly washed in buffer until supernatant clarification (centrifuged at 7,500×g, 5 minutes after each wash) and finally washed in nucleus buffer (10 mM Tris.HCl/13 mm EDTA, pH 7, 4) and resuspended in 250 μl of 0.2 M HCl/H2SO4. Histone proteins were extracted in an acidic environment by incubating overnight at 4° C. under gentle shaking. After centrifugation at 14,000 rpm at 4° C. for 10 minutes, 1250 μl of cold acetone was added to the supernatant and incubated overnight at −20° C., resulting in the precipitation of histone proteins. The pellet obtained after centrifugation for 10 minutes at 14000 rpm and 4° C. was washed with cold acetone, evaporated to dryness and resuspended in 50 μl distilled water. The protein content determination of both total and histone extracts was carried out by a colorimetric assay using a BCA Protein Assay Kit (Pierce cat: 23227).
H3 histone acetylation and total H3 amount were quantified by commercial ELISA assays PathScan acetylated histone H3 Sandwich Elisa kit, cat #7232C and PathScan total histone H3 Sandwich Elisa Kit, cat #7253C Cell Signaling) according to supplier reported method and by detecting absorbance at 450 nm wavelength using Multiskan Spectrum. ELISA tests were performed by analysing 0.250 μg and 0.500 μg of histone extract of each sample. The degree of acetylation was calculated by dividing H3 histone absorbance by histone total absorbance.
(§3) Test results of tubulin and H3 histone acetylation, expressed as fold increase of ratio of acetylated α-tubulin/total α-tubulin and H3Ac/H3Tot, respectively, of each sample relative to the control sample (untreated) are summarized in Tables 6 and 6′.

[3] = system: α-tubulin acetylation in 697 cell line; assay: In vitro α-tubulin acetylation in 697 cell line; type: cell-based; conditions: 16 hours, read-out: Tubulin acetylation (ratio of acetylated tubulin and total tubulin towards control); for fold induction at 0.037 µM: Conc 37 nM; for fold induction at 0.111 µM: Conc 111 nM; for fold induction at 0.333 µM: Conc 333 nM; for fold induction at 1 µM: Conc 1000 nM
Experimental: as §1, §2
At the end of the incubation period, 5×10^6 cells were taken from each sample, centrifuged for 5 minutes at 1100 rpm and washed in 0.9% NaCl at 4° C. The resulting pellet was lysed by treating at 4° C. for 30 minutes with 150 μl of Complete Lysis-M (Roche, cat-04719956051) containing protease inhibitors and phosphatase (Complete Easy Pack proteinase inhibitor cocktail tablets cat: 04693116001, Phostop easypack phosphatase inhibitor cocktails, cat: 01906837001—Roche), then centrifuged 10 minutes at 14,000 rpm (20817×g). 0.150 μg of supernatant (total protein extract) were diluted in 100 μl of 1×PBS and immobilized in Maxisorp F96 NUN-IMMUNO Plate (Nunc cat #5442404) at room temperature overnight. Plates were washed twice with Wash Buffer (PBS1X+0.005% tween 20) and saturated for 1 hour at room temperature with 300 μL of 1×PBS containing 10 FCS. After washing with buffer (1×PBS containing 0.005% tween), the plates were incubated for two hours at room temperature in the presence of anti-acetylated-α-tubulin antibody (Monoclonal Anti-acetylated-tubulin clone 6-11B-1, mouse ascites fluid, cat #T6793 Sigma, 100 μl diluted 1:1000 in 1×PBS containing 10% FCS) or with total anti-α-tubulin antibody (Monoclonal Anti alpha-tubulin produced in mouse, cat #T6074 Sigma). After washing, 100 μl per well of TMB substrate kit was added for 10 minutes at room temperature in the dark. The reaction was stopped by adding 50 μl of 2N H2SO4. The plates were read at Multiskan Spectrum spectrophotometer at a wavelength of 450 nm.
The degree of acetylation was calculated by dividing the absorbance obtained for acetylated α-tubulin by the absorbance of total α-tubulin.
as §3

[4] = read-out: MLR IFN-γ inhibition percentage
[5] = read-out: MLR IL-6 inhibition percentage
[6] = read-out: MLR TNF-α inhibition percentage

`O=C(NO)c1ccc(Cn2nnnc2-c2cccs2)cc1` [comp. 8, N-hydroxy-4-((5-(thiophen-2-yl)-1H-tetrazol-1-yl)methyl)benzamide] gave an AUCtot ([1]; Os, dose 5.2 mg/kg) of 0.094 µg·h/mL, a Cmax ([1]; Os, dose 5.2 mg/kg) of 0.238 µg/mL and a Tmax ([1]; Os, dose 5.2 mg/kg) of 4.8 min. It also gave a T1/2 ([1]; i.v., dose […]) of 60 min, a Vd ([1]; i.v., dose […]) of 15.3 L/kg and a bioavailability ([1]; plasma, po, 5.2 mg/kg) of 18.5%. The inhibition at […] (human PBMCs; [4]) was 24.1%, the inhibition at […] (human PBMCs; [5]) was -33.1% and the inhibition at […] (human PBMCs; [6]) was 54.7%. The inhibition at 0.5 µM (human PBMCs; [4]) was 35.3%, the inhibition at 0.5 µM (human PBMCs; [5]) was -13% and the inhibition at 0.5 µM (human PBMCs; [6]) was 35.1%. It also gave an inhibition at 1 µM (human PBMCs; [4]) of 15.7%, an inhibition at 1 µM (human PBMCs; [5]) of -1.5% and an inhibition at 1 µM (human PBMCs; [6]) of 28.1%.

Work on `Cn1c(Sc2ccc(C(=O)NO)cc2)nnc1-c1cccs1` [comp. 10, N-hydroxy-4-((4-methyl-5-(thiophen-2-yl)-4H-1,2,4-triazol-3-yl)thio)benzamide] yielded an AUCtot ([1]; Os, dose 5.2 mg/kg) of 0.123 µg·h/mL, a Cmax ([1]; Os, dose 5.2 mg/kg) of 0.144 µg/mL and a Tmax ([1]; Os, dose 5.2 mg/kg) of 15 min. It also gave a T1/2 ([1]; i.v., dose […]) of 78 min, a Vd ([1]; i.v., dose […]) of 20.5 L/kg and a bioavailability ([1]; in vivo, po, 5.2 mg/kg) of 25.8%. For the same compound, the inhibition at 1 µM (human PBMCs; [4]) was 25.6%, the inhibition at 1 µM (human PBMCs; [5]) was 20.6% and the inhibition at 1 µM (human PBMCs; [6]) was 49.4%.

`O=C(NO)c1cc(F)c(Cn2nnnc2-c2cccs2)c(F)c1` [comp. 15, 3,5-difluoro-N-hydroxy-4-((5-(thiophen-2-yl)-1H-tetrazol-1-yl)methyl)benzamide] showed an inhibition at 1 µM (human PBMCs; [4]) of 21%, an inhibition at 1 µM (human PBMCs; [5]) of 22.9% and an inhibition at 1 µM (human PBMCs; [6]) of 33.9%. For the same compound, the fold induction at 0.111 µM [2] was 1, the fold induction at 0.333 µM [2] was 1 and the fold induction at 1 µM [2] was 1. The fold induction at 0.037 µM [3] was 1, the fold induction at 0.111 µM [3] was 3 and the fold induction at 0.333 µM [3] was 5. The fold induction at 1 µM [3] was 12.

For `Cn1c(Sc2c(F)cc(C(=O)NO)cc2F)nnc1-c1cccs1` [comp. 17, 3,5-difluoro-N-hydroxy-4-((4-methyl-5-(thiophen-2-yl)-4H-1,2,4-triazol-3-yl)thio)benzamide], the AUC ([1]; plasma, iv, 1.3 mg/kg) was 0.114 µg·h/mL, the C0 ([1]; plasma, iv, 1.3 mg/kg) was 0.727 µg/mL and the Vd ([1]; plasma, iv, 1.3 mg/kg) was 16.8 L/kg. The clearance ([1]; plasma, iv, 1.3 mg/kg) was 11.4 L/h/kg, the half-life ([1]; plasma, iv, 1.3 mg/kg) was 60 min and the Tmax ([1]; plasma, po, […]) was 4.8 min. The bioavailability ([1]; plasma, po, […]) was 18.4%, the inhibition at 1 µM (human PBMCs; [4]) was 41.6% and the inhibition at 1 µM (human PBMCs; [5]) was 31.2%. It also gave an inhibition at 1 µM (human PBMCs; [6]) of 39.4%.

In the case of `O=C(NO)c1cc(F)c(Cn2nnc(-c3ccco3)n2)c(F)c1` [comp. 19, 3,5-difluoro-4-((5-(furan-2-yl)-2H-tetrazol-2-yl)methyl)-N-hydroxybenzamide], the inhibition at 1 µM (human PBMCs; [4]) is reported as -7.85%, the inhibition at 1 µM (human PBMCs; [5]) is reported as 4.62% and the inhibition at 1 µM (human PBMCs; [6]) is reported as 25.9%. The fold induction at 0.111 µM [2] was 1, the fold induction at 0.333 µM [2] was 2 and the fold induction at 1 µM [2] was 2. For the same compound, the fold induction at 0.037 µM [3] was 7, the fold induction at 0.111 µM [3] was 15 and the fold induction at 0.333 µM [3] was 21. The fold induction at 1 µM [3] was 17.

For `O=C(NO)c1cc(F)c(Cc2nnc(-c3ccncc3)s2)c(F)c1` [compound 195, 3,5-difluoro-4-[[5-(4-pyridyl)-1,3,4-thiadiazol-2-yl]methyl]benzenecarbohydroxamic acid], the fold induction at 0.111 µM [2] was 1, the fold induction at 0.333 µM [2] was 1 and the fold induction at 1 µM [2] was 1. The fold induction at 0.037 µM [3] was 6, the fold induction at 0.111 µM [3] was 11 and the fold induction at 0.333 µM [3] was 10. For the same compound, the fold induction at 1 µM [3] was 14.
